# Data as given in US10471063B2, “Drug combination of PDE3/PDE4 inhibitor and muscarinic receptor antagonist” (VERONA PHARMA PLC, priority 2013, dated 2019).
# Where two headings read alike, the source gives them in different places. Marks after values point to notes of the source that are not given here.
# Columns and labels:
# [1] = test system: airways obstruction induced by bombesin in guinea pigs; test: Reversal of bombesin-induced airways obstruction (total lung resistance); format: in vivo
# Experimental: (§1) Guinea pigs were anaesthetised and ventilated. Airway obstruction was induced by the intravenous administration of bombesin (2 μg/ml; 5 ml/hr). Bronchodilation was induced by the iv. administration of RPL554 alone at various doses, or in combination with sub maximal doses of atropine (2 μg/kg). […] Total lung resistance (RL) and mean arterial blood pressure were measured. Data are expressed as % reduction in airways obstruction or blood pressure.
# [2] = test system: passively sensitized human isolated bronchi; test: Contraction induced by histamine in passively sensitized human bronchi pre-incubated with RPL554; format: cell-based
# Experimental: Human isolated bronchial rings were rotated overnight at room temperature in tubes containing KH buffer solution in the absence (non-sensitized control rings) or the presence of 10% vol^−1 sensitizing serum (sensitized rings) as described elsewhere (Watson et al., 1997; Rabe, 1998). Subjects suffering from atopic asthma (total IgE>250 U ml^−1 specific against common aeroallergens) during exacerbation provided signed consent for serum donation. Sera was prepared by centrifugation of whole blood and sera samples were frozen at −80° C. in […] until required.
# The next morning, after removal of adhering alveolar and connective tissues, bronchial rings were transferred into an organ bath containing KH buffer (37° C.) and continuously gassed with a 95% O2/5% CO2. Tissues were pre-incubated for 30 min with RPL554 (1, 10 and 100 μM) and then followed (without washing) by the construction of concentration responses curve to histamine (10 nM-1 mM) in the presence of RPL554.
# Appropriate curve-fitting to a sigmoidal model was used to calculate the effect (E), the Emax and the concentration required to cause a 50% maximal effect (EC50). The equation used was log [agonist] vs. response, Variable slope, expressed as Y=Bottom+(Top−Bottom)/{1+10^[(Log EC50−X)*HillSlope]} (Motulsky and Christopoulos, 2004; Goodman et al., 2008). E/Emax was expressed as percentage of Emax elicited by the contractile agents; EC50 values were converted to pD2 for statistical analysis (Goodman et al., 2008) and the relaxant responses were expressed as a percentage of papaverine (500 μM) induced relaxation.
# [3] = test system: human isolated bronchial rings; test: Relaxation of human isolated bronchial rings pre-contracted with acetylcholine (EC70); synergy analysis (Bliss Independence, Berenbaum); format: cell-based
# Description: In the laboratory, airways were dissected from connective and alveolar tissues. Then, segmental bronchi were isolated and stored overnight in KH buffer solution at refrigeration temperature. […] Bronchial rings were mounted on hooks in the organ baths where one hook was attached with threaded to a stationary rod and the other hook tied with thread to an isometric force displacement transducer. […] Then, concentration response curves were constructed to test individual compound RPL554 and muscarinic receptor antagonist alone; as well as RPL554 administered in combination with a muscarinic receptor antagonist in order to produce isobolar graphs as described elsewhere (Greco et al., 1995; Tallarida, 2001; Goldoni and Johansson, 2007; Boik et al., 2008; Lee, 2010). […] Goodman et al., 2008). E/Emax was expressed as percentage of Emax elicited by the contractile agents; […] The analysis of the potential synergism between RPL554 plus muscarinic receptor antagonist was measured by applying the Berenbaum method, the Bliss Independence (BI) criterion and the Loewe Additivity (LA) model through curved isoboles (Berenbaum, 1977; Greco et al., 1995; Grabovsky and Tallarida, 2004; Tallarida, 2006; Goldoni and Johansson, 2007; Tallarida and Raffa, 2010). […] Lee, 2010). The BI theory for two agents is expressed by the following equation: E(x,y)=Ex+Ey-(Ex*Ey), where E is the fractional effect, and x and y are the concentrations of two compounds in a combination experiment. If the combination effect is higher than the expected value from the above equation, the interaction is considered synergistic, while if this effect is lower, the interaction is antagonistic. […] In this study, the BI equation was characterized by X=RPL554 and Y=muscarinic receptor antagonist. […] The additive response (Eab) for each dose combination with respect to B was then calculated by insertion of B into EB=f(B). The difference between the observed relaxation response to the combination doses and the additive response was calculated and analysed using a one sample t-test and for multiple comparisons, the probability was adjusted for multiple comparisons using a Bonferroni correction. For illustrative purposes, the 1:1 dose combinations were analysed for synergy. […] Tallarida, 2001; Goldoni and Johansson, 2007; Boik et al., 2008; Lee, 2010).
# [4] = test system: human isolated bronchial preparations; test: Inhibition of EFS (10 Hz)-induced contraction of human isolated bronchial rings; format: cell-based
# Experimental: Regions of macroscopically normal lungs were taken from uninvolved areas resected from 24 subjects (11 male and 13 female, 60.1±1.6 years old) undergoing lobectomy surgery for lung cancer, but without a history of chronic airway disease.
# Airways were immediately placed into oxygenated Krebs-Henseleit buffer solution (KH) (mM: NaCl 119.0, KCl 5.4, CaCl2 2.5, KH2PO4 1.2, MgSO4 1.2, NaHCO3 25.0, glucose 11.7; pH 7.4) containing the cyclooxygenase (COX) inhibitor indomethacin (5.0 μM), and transported at 4° C. from the “Regina Elena National Cancer Institute” or the “Sant' Andrea Hospital” to the Respiratory Research Laboratory in the Surgery and Medicine Faculty of “Tor Vergata University”, Rome, Italy. None of the subjects were chronically treated with theophylline, β2-agonists or glucocorticosteroids. Serum IgE levels determined on the day of surgery were in the normal range. Preoperative lung function parameters were generally normal and there were no signs of respiratory infections.
# In the laboratory, airways were dissected from connective and alveolar tissues. Then, segmental bronchi were isolated and stored overnight in KH buffer solution at refrigeration temperature. […]
# Human bronchi were placed in organ baths containing KH buffer solution (37° C.) medicated with indomethacin (5.0 μM), bubbled with 95% O2/5% CO2 and suspended under passive tension (0.5-1.0 g). […] Changes in isometric tension were measured with a transducer (Fort 10 WPI, Basile, Instruments, Italy) and the tissue responsiveness was assessed by acetylcholine (100 μM); when the response reached a plateau, rings were washed three times and allowed to equilibrate for 45 min. […]
# Bronchial contractile tension induced by EFS was measured as a percentage of control bronchi, and polynomial curves were constructed by fitting models of biological data using nonlinear regression as described elsewhere (Motulsky and Christopoulos, 2004). […]
# [5] = test system: human isolated bronchioles (small bronchi <1 mm diameter); test: Relaxation of small human bronchi in precision cut lung slices contracted with carbachol (EC70); format: cell-based; details: for IC50: Homo sapiens, relaxation of bronchioles, CCh EC70, mean±SEM, n=3, read-out: pD2 (negative logarithm of IC50) (converted)
# Experimental: Precision cut lung slices (PCLSs) from 6 patients were incubated in Krebs-Henseleit solution (37° C.) aerated with O2/CO2 (95:5%). The concentration response to RPL554 and glycopyrronium, administered alone and in combination at isoeffective concentrations, was assessed at sub-maximal contraction (70% maximum, EC70) induced by carbachol (CCh). […] Drug mixture effects were analyzed by Bliss Independence theory. Values (n=3) are mean±SEM.
# [6] = Mean arterial blood pressure in bombesin-treated anaesthetised guinea pigs; format: in vivo; details: RPL554 20 μg/kg iv (combination: + 2 μg/kg atropine)
# Experimental: as §1
# human isolated bronchi = test: Duration of action on EFS (3, 10, 25 Hz)-contracted human isolated bronchi, RPL554 and glycopyrronium at EC30; format: cell-based; details: administered alone
# Experimental: Bronchial rings from 6 patients were incubated in Krebs-Henseleit solution (37° C.) aerated with O2/CO2 (95/5%) under 0.5-1.0 g tension. The duration of action (30% maximal relaxation, EC30) of RPL554 and glycopyrronium, alone or in combination, was studied in tissue contracted with 3, 10 or 25 Hz electrical field stimulation (EFS). Bronchial tone was expressed as % of maximal response to papaverine (Emax) and the area under the curve (AUC) of the contractile response was assessed. Drug mixture effects were analyzed by Bliss Independence theory. Values (n=3) are mean±SEM.
compound,measurement,setting,value
"COc1cc2c(cc1OC)-c1cc(=Nc3c(C)cc(C)cc3C)n(CCNC(N)=O)c(=O)n1CC2 [RPL554, 9,10-Dimethoxy-2-(2,4,6-trimethylphenylimino)-3-(N-carbamoyl-2-aminoethyl)-3,4,6,7-tetrahydro-2H-pyrimido[6,1-a]isoquinolin-4-one]",% Reduction in airways obstruction,[1]; RPL554 10 μg/kg iv (combination: + atropine 2 μg/kg),7.4 + 1.9%
same,% Reduction in airways obstruction,[1]; RPL554 20 μg/kg iv (combination: + atropine 2 μg/kg),24.6 + 4.3%
same,% Reduction in airways obstruction,[1]; RPL554 40 μg/kg iv (combination: + atropine 2 μg/kg),55.2 + 6.2%
same,% Reduction in airways obstruction,[1]; RPL554 80 μg/kg iv (combination: + atropine 2 μg/kg),65.1 + 5.3%
same,Emax at 1 µM,"[2]; Homo sapiens, RPL554 1 uM, mean ± SEM, n=5",70.3 ± 2.7%
same,Emax at 10 µM,"[2]; Homo sapiens, RPL554 10 uM, mean ± SEM, n=5",58.1%
same,pD2 of histamine,[2]; RPL554 1 uM,4.97 ± 0.07***
same,pD2 of histamine,[2]; RPL554 10 uM,4.98
same,Effect on contraction induced by histamine,[2]; RPL554 100 μM,completely abolished
same,Emax,"[3]; acetylcholine EC70 pre-contraction, percentage of papaverine (500 μM) relaxation, mean±SD, n=5, read-out: Emax (relaxation)",100%
same,EC50,"[3]; relaxation of acetylcholine pre-contracted bronchi, n=5, read-out: EC50 (geomean, 95% CI)",21200 nM
same,Emax at 100 µM,"[4]; Homo sapiens, RPL554 100 μM, 10 Hz EFS, read-out: Emax, inhibition of contractile response induced by EFS",91.3 ± 3.37%
same,"T1/2 (offset, time to evoke half of maximal relaxation)","[4]; RPL554 100 μM, 10 Hz EFS",23.7 ± 12.3 min
same,Duration of inhibition of EFS contractile response after exposure,[4]; after termination of drug exposure,at least 5 h
same,Effect on CCh-induced contraction,[5],abolished
same,IC50,[5],1000 nM
same,reduction in mean arterial blood pressure,[6],37.3+6.7%
same,Time for which the effect was detectable,human isolated bronchi,4 h
same,Time of maximal relaxation,human isolated bronchi,160 ± 20 min
"CN1[C@@H]2CC[C@H]1C[C@@H](OC(=O)C(CO)c1ccccc1)C2 (some centres unmarked) [atropine, reference compound]",reduction in airways obstruction,[1]; atropine 2 μg/kg alone,22.3 ± 4.9%
same,EC50,"[3]; read-out: EC50 (geomean, 95% CI)",1180 nM
same,Emax,[3]; read-out: Emax (relaxation),66 ± 14%
"C[N+]1(C)CCC(OC(=O)C(O)(c2ccccc2)C2CCCC2)C1 (centres unmarked) [glycopyrronium, reference compound]",Effect on CCh-induced contraction,[5],abolished
same,IC50,[5],0.631 nM
same,Time for which the effect was detectable,human isolated bronchi,4 h
same,Time of maximal relaxation,human isolated bronchi,50 ± 10 min
